Measured values as given in ChEMBL document CHEMBL1201862, “PubChem BioAssay data set” (2004).
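All cell lines were grown in 96-well plates and treated with compound for 48 hours. GI50 marks 50% less growth.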 Active and inactive are the calls of the source. Cut-off read from the data, not from the text of the source: active = GI50 up to about 1.1 µM and inactive = higher.

What was measured:
Test in all cases: NCI anticancer screen, dose series, 48 h
786-0 = system: 786-0
A498 = system: A498
A549 = system: A549
ACHN = system: ACHN
BT-549 = system: BT-549
CAKI-1 = system: CAKI-1
CCRF-CEM = system: CCRF-CEM
COLO 205 = system: COLO 205
DU-145 = system: DU-145
EKVX = system: EKVX
HCC 2998 = system: HCC 2998
HCT-116 = system: HCT-116
HCT-15 = system: HCT-15
HL-60 = system: HL-60
HOP-62 = system: HOP-62
HOP-92 = system: HOP-92
HT-29 = system: HT-29
Hs-578T = system: Hs-578T
IGROV-1 = system: IGROV-1
K562 = system: K562
KM12 = system: KM12
LOX IMVI = system: LOX IMVI
M14 = system: M14
MCF7 = system: MCF7
MDA-MB-231 = system: MDA-MB-231
MDA-MB-435 = system: MDA-MB-435
MDA-N = system: MDA-N
MOLT-4 = system: MOLT-4
Malme-3M = system: Malme-3M
NCI-H226 = system: NCI-H226
NCI-H23 = system: NCI-H23
NCI-H460 = system: NCI-H460
NCI-H522 = system: NCI-H522
NCI/ADR-RES = system: NCI/ADR-RES
OVCAR-3 = system: OVCAR-3
OVCAR-4 = system: OVCAR-4
OVCAR-5 = system: OVCAR-5
OVCAR-8 = system: OVCAR-8
PC-3 = system: PC-3
RPMI-8226 = system: RPMI-8226
RXF 393 = system: RXF 393
SF-268 = system: SF-268
SF-295 = system: SF-295
SF-539 = system: SF-539
SK-MEL-28 = system: SK-MEL-28
SK-MEL-2 = system: SK-MEL-2
SK-MEL-5 = system: SK-MEL-5
SK-OV-3 = system: SK-OV-3
SN12C = system: SN12C
SNB-19 = system: SNB-19
SNB-75 = system: SNB-75
SR = system: SR
SW-620 = system: SW-620
T47D = system: T47D
TK-10 = system: TK-10
U-251 = system: U-251
UACC-257 = system: UACC-257
UACC-62 = system: UACC-62
UO-31 = system: UO-31

With COc1ccc(/C=C/C(=O)Oc2ccc(/C=C3\CCCCC3=O)cc2)cc1 the GI50 (786-0) was > 100 µM (inactive), the GI50 (A498) was > 100 µM (inactive) and the GI50 (A549) was 80.5 µM (inactive). The GI50 (ACHN) was > 100 µM (inactive), the GI50 (BT-549) was 72.3 µM (inactive) and the GI50 (CAKI-1) was > 100 µM (inactive). The GI50 (CCRF-CEM) was 1.93 µM (inactive), the GI50 (COLO 205) was 19.5 µM (inactive) and the GI50 (DU-145) was > 100 µM (inactive). For the same compound, the GI50 (EKVX) was > 100 µM (inactive), the GI50 (HCC 2998) was > 39.1 µM (inactive) and the GI50 (HCT-116) was 9.33 µM (inactive). The GI50 (HCT-15) was 29.1 µM, the GI50 (HL-60) was 12.6 µM (inactive) and the GI50 (HOP-62) was 23.1 µM (inactive). For the same compound, the GI50 (HOP-92) was > 66.1 µM (inactive), the GI50 (HT-29) was 6.28 µM (inactive) and the GI50 (Hs-578T) was > 80.5 µM (inactive). The GI50 (IGROV-1) was 38.6 µM (inactive), the GI50 (K562) was > 100 µM (inactive) and the GI50 (KM12) was 56.1 µM (inactive). For the same compound, the GI50 (LOX IMVI) was > 100 µM (inactive), the GI50 (M14) was > 100 µM (inactive) and the GI50 (MCF7) was > 100 µM (inactive). For the same compound, the GI50 (MDA-MB-231) was 40.9 µM (inactive), the GI50 (MDA-MB-435) was > 44.6 µM (inactive) and the GI50 (MDA-N) was > 100 µM (inactive). The GI50 (MOLT-4) was 2.51 µM (inactive), the GI50 (Malme-3M) was > 79.1 µM (inactive) and the GI50 (NCI-H226) was 25.3 µM (inactive). For the same compound, the GI50 (NCI-H23) was 97.1 µM (inactive), the GI50 (NCI-H460) was > 100 µM (inactive) and the GI50 (NCI-H522) was > 100 µM (inactive). For the same compound, the GI50 (NCI/ADR-RES) was > 57.4 µM (inactive), the GI50 (OVCAR-3) was > 100 µM (inactive) and the GI50 (OVCAR-4) was 43.2 µM (inactive). For the same compound, the GI50 (OVCAR-5) was > 100 µM (inactive), the GI50 (OVCAR-8) was > 75.9 µM (inactive) and the GI50 (PC-3) was > 100 µM (inactive). For the same compound, the GI50 (RPMI-8226) was 3.61 µM (inactive), the GI50 (RXF 393) was > 100 µM (inactive) and the GI50 (SF-268) was 8 µM (inactive). For the same compound, the GI50 (SF-295) was 18.4 µM (inactive), the GI50 (SF-539) was > 100 µM (inactive) and the GI50 (SK-MEL-28) was > 100 µM (inactive). The GI50 (SK-MEL-2) was > 100 µM (inactive), the GI50 (SK-MEL-5) was > 100 µM (inactive) and the GI50 (SK-OV-3) was > 100 µM (inactive). For the same compound, the GI50 (SN12C) was 50.9 µM (inactive), the GI50 (SNB-19) was > 66.1 µM (inactive) and the GI50 (SNB-75) was > 88.3 µM (inactive). The GI50 (SR) was > 100 µM (inactive), the GI50 (SW-620) was > 93.1 µM (inactive) and the GI50 (T47D) was > 100 µM (inactive). The GI50 (TK-10) was > 91.6 µM (inactive), the GI50 (U-251) was > 94.6 µM (inactive) and the GI50 (UACC-257) was > 67.8 µM (inactive). For the same compound, the GI50 (UACC-62) was 2.96 µM (inactive) and the GI50 (UO-31) was > 100 µM (inactive).

O=c1c2cccnc2[nH]c2ccc3[nH]ncc3c12 was tested, and the GI50 (786-0) was > 10 µM (inactive), the GI50 (A498) was 8.49 µM (inactive) and the GI50 (A549) was > 10 µM (inactive). The GI50 (ACHN) was 5.13 µM (inactive), the GI50 (BT-549) was > 10 µM (inactive) and the GI50 (CAKI-1) was 7.45 µM (inactive). For the same compound, the GI50 (CCRF-CEM) was > 10 µM (inactive), the GI50 (COLO 205) was > 10 µM (inactive) and the GI50 (DU-145) was > 10 µM (inactive). For the same compound, the GI50 (EKVX) was 9.33 µM (inactive), the GI50 (HCC 2998) was > 10 µM (inactive) and the GI50 (HCT-116) was 7.91 µM (inactive). For the same compound, the GI50 (HCT-15) was 6.18 µM, the GI50 (HL-60) was > 10 µM (inactive) and the GI50 (HOP-62) was > 10 µM (inactive). The GI50 (HOP-92) was > 10 µM (inactive), the GI50 (HT-29) was > 10 µM (inactive) and the GI50 (Hs-578T) was > 10 µM (inactive). For the same compound, the GI50 (IGROV-1) was 6.11 µM (inactive), the GI50 (K562) was > 10 µM (inactive) and the GI50 (KM12) was 5.45 µM (inactive). For the same compound, the GI50 (LOX IMVI) was 2.91 µM (inactive), the GI50 (M14) was > 10 µM (inactive) and the GI50 (MCF7) was > 10 µM (inactive). For the same compound, the GI50 (MDA-MB-231) was > 10 µM (inactive), the GI50 (MDA-MB-435) was > 10 µM (inactive) and the GI50 (MDA-N) was > 10 µM (inactive). The GI50 (MOLT-4) was > 10 µM (inactive), the GI50 (Malme-3M) was > 10 µM (inactive) and the GI50 (NCI-H226) was > 10 µM (inactive). For the same compound, the GI50 (NCI-H23) was > 10 µM (inactive), the GI50 (NCI-H460) was > 10 µM (inactive) and the GI50 (NCI-H522) was > 10 µM (inactive). For the same compound, the GI50 (NCI/ADR-RES) was > 10 µM (inactive), the GI50 (OVCAR-3) was > 10 µM (inactive) and the GI50 (OVCAR-4) was > 10 µM (inactive). The GI50 (OVCAR-5) was > 10 µM (inactive), the GI50 (OVCAR-8) was > 10 µM (inactive) and the GI50 (PC-3) was > 10 µM (inactive). The GI50 (RPMI-8226) was > 10 µM (inactive), the GI50 (RXF 393) was > 10 µM (inactive) and the GI50 (SF-268) was > 10 µM (inactive). For the same compound, the GI50 (SF-295) was > 10 µM (inactive), the GI50 (SF-539) was > 10 µM (inactive) and the GI50 (SK-MEL-28) was > 10 µM (inactive). The GI50 (SK-MEL-2) was > 10 µM (inactive), the GI50 (SK-MEL-5) was > 10 µM (inactive) and the GI50 (SK-OV-3) was > 10 µM (inactive). For the same compound, the GI50 (SN12C) was > 10 µM (inactive), the GI50 (SNB-19) was > 10 µM (inactive) and the GI50 (SNB-75) was > 10 µM (inactive). The GI50 (SR) was > 10 µM (inactive), the GI50 (SW-620) was > 10 µM (inactive) and the GI50 (T47D) was > 10 µM (inactive). The GI50 (TK-10) was > 10 µM (inactive), the GI50 (U-251) was > 10 µM (inactive) and the GI50 (UACC-257) was > 10 µM (inactive). The GI50 (UACC-62) was > 10 µM (inactive).
